From patent US20250136618A1, “ANTIBIOTIC PYRAZINOTHIAZINE DERIVATIVES AND PROCESS OF PREPARATION THEREOF” (Bugworks Research India PVT Ltd, priority 2021, published 2025)
≈ marks a conversion by molar mass, not a printed value.

What was measured:
Assay type in all cases: cell-based
[1] = tested on: Acinetobacter baumannii ATCC 19606; assay: Minimum Inhibitory Concentration (MIC) in LB media; conditions: Acinetobacter baumannii, ATCC19606
From the text: (§1) The compounds of Formula Ia and Formula Ib are of interest due to their potent antibacterial effects. The ability of the compounds disclosed herein to achieve an antibacterial effect may be evaluated with regard to their ability to inhibit the growth of bacterial species like Escherichia coli ATCC 25922, Staphylococcus aureus ATCC 29213, Klebsiella pneumoniae ATCC 13883, Acinetobacter baumannii ATCC 19606, Pseudomonas aeruginosa ATCC 27853 and Enterococcus faecalis ATCC 29212 using an assay based on the following Minimum Inhibitory Concentration (MIC) protocol:
(§2) The test bacteria were grown in Luria Bertani Broth (HIMEDIA M1245), 25 g of the powder was dissolved in 1000 ml distilled water and sterilized by autoclaving at 15 lbs pressure (121° C.) for 20 minutes. The medium sterility was checked by incubating at 37° C. for a period of 48 h. Bacterial cultures that were stored as glycerol stocks at −80° C. were subcultured on LB agar plates to obtain isolated colonies. A single colony of each strain was cultured in LB broth. The cultures were incubated at 37° C., 200 rpm till they reached an optical density (OD at 600 nm) of 0.8 to 1. This log phase culture was diluted in LB broth to a cell number of 5-8*10^5 CFU/mL to be used as inoculum for MIC experiments. Test compounds were dissolved in dimethyl sulfoxide (DMSO) to a stock concentration of 4 mg/ml. A two-fold dilution series of this DMSO stock was prepared in a 96 well V bottom microtitre plate from rows A to H. A 3 μL volume of these dilutions are transferred to a 96-well flat bottom microtitre assay plate. Controls to monitor the effects of DMSO and media sterility were included. Each well was inoculated with 150 μL of the above diluted culture. The plates were incubated at 37° C. overnight in a humidified incubator. The following morning, the plates were read using a Spectrophotometer at 600 nm wavelength. […] The antibacterial activity (MIC) determined against representative gram-positive (S. aureus, E. faecalis) and gram-negative (E. coli, Aeruginosa, K. pneumoniae, and A. baumannii) pathogen are reported Table 1.

[2] = tested on: Enterococcus faecalis ATCC 29212; assay: Minimum Inhibitory Concentration (MIC) in LB media; conditions: Enterococcus faecalis, ATCC29212, read-out: Minimum Inhibitory Concentration E. faecalis ATCC 29212
From the text: as §1, §2

[3] = tested on: Escherichia coli ATCC 25922; assay: Minimum Inhibitory Concentration (MIC) in LB media; conditions: Escherichia coli, ATCC25922, read-out: Minimum Inhibitory Concentration E. coli ATCC 25922
From the text: as §1, §2

[4] = tested on: Klebsiella pneumoniae ATCC 13883; assay: Minimum Inhibitory Concentration (MIC) in LB media; conditions: Klebsiella pneumoniae, ATCC13883, read-out: Minimum Inhibitory Concentration K. pneumoniae ATCC 13883
From the text: as §1, §2

[5] = tested on: Pseudomonas aeruginosa ATCC 27853; assay: Minimum Inhibitory Concentration (MIC) in LB media; conditions: Pseudomonas aeruginosa, ATCC27853
From the text: as §1, §2

[6] = tested on: Staphylococcus aureus ATCC 29213; assay: Minimum Inhibitory Concentration (MIC) in LB media; conditions: Staphylococcus aureus, ATCC29213, read-out: Minimum Inhibitory Concentration S. aureus ATCC 29213
From the text: as §1, §2

Acinetobacter baumannii = assay: MIC90 determination, clinical strains (CLSI); conditions: Acinetobacter baumannii, N=38, read-out: MIC 90 Acinetobacter baumannii
Citrobacter freundii = assay: MIC90 determination, clinical strains (CLSI); conditions: Citrobacter freundii, N=19, read-out: MIC 90 Citrobacter freundii
Enterobacter cloacae = assay: MIC90 determination, clinical strains (CLSI); conditions: Enterobacter cloacae, N=26, read-out: MIC 90 Enterobacter cloacae
Escherichia coli = assay: MIC90 determination, clinical strains (CLSI); conditions: Escherichia coli, N=38, read-out: MIC 90 Escherichia coli
[7] = tested on: Klebsiella aerogenes, K. oxytoca; assay: MIC90 determination, clinical strains (CLSI); conditions: N=17, read-out: MIC 90 Klebsiella aerogenes, K. oxytoca
Klebsiella pneumoniae = assay: MIC90 determination, clinical strains (CLSI); conditions: Klebsiella pneumoniae, N=86, read-out: MIC 90 Klebsiella pneumoniae
Morganella morganii = assay: MIC90 determination, clinical strains (CLSI); conditions: Morganella morganii, N=11, read-out: MIC 90 Morganella morganii
Proteus mirabilis = assay: MIC90 determination, clinical strains (CLSI); conditions: Proteus mirabilis, N=12, read-out: MIC 90 Proteus mirabilis
[8] = tested on: Providencia rettgeri, P. stuartii; assay: MIC90 determination, clinical strains (CLSI); conditions: N=12, read-out: MIC 90 Providencia rettgeri, P. stuartii
Pseudomonas aeruginosa = assay: MIC90 determination, clinical strains (CLSI); conditions: Pseudomonas aeruginosa, N=34, read-out: MIC 90 Pseudomonas aeruginosa
Serratia marcescens = assay: MIC90 determination, clinical strains (CLSI); conditions: Serratia marcescens, N=15, read-out: MIC 90 Serratia marcescens
CHO-K1 cells = assay: In-vitro micronucleus assay; conditions: for % (in-vitro micronucleus assay) / In vitro micronucleus forming concentration: Chinese hamster
Experimental: Genetic toxicology studies were performed on the compounds of the present disclosure to assess their ability to cause DNA damage. The in-vitro micronucleus assay measured the concentration (μM) of the compound at which micronuclei formation occurred. A micronuclei formation at lower concentration indicates more genetic damage or genotoxicity.
Micronucleus formation is a hallmark of genotoxicity, and the micronucleus assay is an important component of genotoxicity screening. Micronuclei are chromatin-containing bodies that represent fragments or even whole chromosomes that were not incorporated into a daughter cell nucleus at mitosis. The purpose of the assay is to detect agents that induce chromosome damage leading to the induction of micronuclei in interphase cells. The in vitro micronucleus assay was conducted in CHO-K1 cells according to the procedure described by Diaz, D et al [Mutat Res. 630(1-2):1-13. […] The formation of the micronucleus is identified by image-based high content analysis from binucleated cells.

hERG potassium channel = hERG potassium channel (Homo sapiens (Human), UniProt Q12809); assay: hERG inhibition assay (Qpatch HTX automated electrophysiology); conditions: CHO cell line expressing hERG, whole-cell patch clamp
Chain of hERG potassium channel (Q12809 whole entry): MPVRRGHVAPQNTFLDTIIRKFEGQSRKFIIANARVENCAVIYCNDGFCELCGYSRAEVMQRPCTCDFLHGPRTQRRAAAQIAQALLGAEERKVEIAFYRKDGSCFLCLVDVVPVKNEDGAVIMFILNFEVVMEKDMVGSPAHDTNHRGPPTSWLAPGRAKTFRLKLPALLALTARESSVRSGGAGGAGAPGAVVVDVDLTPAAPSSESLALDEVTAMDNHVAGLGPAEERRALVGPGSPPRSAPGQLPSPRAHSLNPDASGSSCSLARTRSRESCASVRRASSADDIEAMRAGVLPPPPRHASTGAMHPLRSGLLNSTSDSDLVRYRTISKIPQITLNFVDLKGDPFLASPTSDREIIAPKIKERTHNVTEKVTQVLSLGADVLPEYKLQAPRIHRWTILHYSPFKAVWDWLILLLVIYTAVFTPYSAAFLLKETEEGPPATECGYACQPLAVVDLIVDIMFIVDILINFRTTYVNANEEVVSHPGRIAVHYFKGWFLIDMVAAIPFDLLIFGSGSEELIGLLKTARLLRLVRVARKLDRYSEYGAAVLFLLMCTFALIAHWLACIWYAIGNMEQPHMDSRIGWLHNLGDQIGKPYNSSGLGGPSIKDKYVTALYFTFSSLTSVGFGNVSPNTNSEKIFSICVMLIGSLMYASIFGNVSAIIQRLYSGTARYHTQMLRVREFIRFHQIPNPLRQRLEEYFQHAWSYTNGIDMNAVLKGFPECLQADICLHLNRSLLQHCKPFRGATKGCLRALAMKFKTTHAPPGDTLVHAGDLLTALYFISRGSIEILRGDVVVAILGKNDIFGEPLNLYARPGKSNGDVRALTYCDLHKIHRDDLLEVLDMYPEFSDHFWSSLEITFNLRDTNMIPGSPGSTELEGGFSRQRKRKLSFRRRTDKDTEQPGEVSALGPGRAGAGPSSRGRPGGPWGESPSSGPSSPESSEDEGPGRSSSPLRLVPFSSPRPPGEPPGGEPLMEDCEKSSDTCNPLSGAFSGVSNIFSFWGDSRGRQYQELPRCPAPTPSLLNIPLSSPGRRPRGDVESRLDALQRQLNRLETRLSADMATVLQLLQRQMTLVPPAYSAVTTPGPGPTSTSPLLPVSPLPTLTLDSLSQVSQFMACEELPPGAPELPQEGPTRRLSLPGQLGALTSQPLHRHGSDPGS
Experimental: Electrophysiological recordings were made from a Chinese Hamster Ovary cell line stably expressing the full-length hERG potassium channel. Single cell ionic currents were measured in whole-cell patch clamp configuration at room temperature (21-23° C.) using the Qpatch HTX platform (Sophion). Intracellular solution contained (mM): 120 KF, 20 KCl, 10 EGTA, 10 HEPES and was buffered to pH 7.3. […] Cells were clamped at a holding potential of −80 mV. Cells were stepped to +20 mV for 2 s then −40 mV for 3 s before returning to the holding potential. […] Compounds were then incubated for 2 minutes prior to a second measurement of ion channel current using an identical pulse train.

Compound | MIC [1] [µg/mL] | MIC [2] [µg/mL] | MIC [3] [µg/mL] | MIC [4] [µg/mL] | MIC [5] [µg/mL] | MIC [6] [µg/mL] | MIC90 (Acinetobacter baumannii) [µg/mL] | MIC90 (Citrobacter freundii) [µg/mL] | MIC90 (Enterobacter cloacae) [µg/mL] | MIC90 (Escherichia coli) [µg/mL] | MIC90 [7] [µg/mL] | MIC90 (Klebsiella pneumoniae) [µg/mL] | MIC90 (Morganella morganii) [µg/mL] | MIC90 (Proteus mirabilis) [µg/mL] | MIC90 [8] [µg/mL] | MIC90 (Pseudomonas aeruginosa) [µg/mL] | MIC90 (Serratia marcescens) [µg/mL] | % (in-vitro micronucleus assay) (CHO-K1 cells) [%] | In vitro micronucleus forming concentration (CHO-K1 cells) [µM] | IC50 (hERG potassium channel) [µM] | other results
Cn1c(=O)ccc2ncc(OCCNC[C@H]3CN(c4cnc5c(n4)NC(=O)CS5)C(=O)O3)nc21 [Compound 2, (S)-5-(((2-((5-Methyl-6-oxo-5,6-dihydropyrido[2,3-b]pyrazin-3-yl)oxy)ethyl)amino)methyl)-3-(3-oxo-3,4-dihydro-2H-pyrazino[2,3-b][1,4]thiazin-6-yl)oxazolidin-2-one, reference compound] | 0.03 (≈ 0.0619 µM) | 0.03 (≈ 0.0619 µM) | 0.03 (≈ 0.0619 µM) | 0.03 (≈ 0.0619 µM) | 0.5 (≈ 1.03 µM) | < 0.03 | 2 (≈ 4.13 µM) | 1 (≈ 2.06 µM) | 8 (≈ 16.5 µM) | 1 (≈ 2.06 µM) | 2 (≈ 4.13 µM) | 4 (≈ 8.26 µM) | 1 (≈ 2.06 µM) | 4 (≈ 8.26 µM) | 4 (≈ 8.26 µM) | 4 (≈ 8.26 µM) | 16 (≈ 33 µM) | 1.67 | 8 | > 150 | 
Cn1c(=O)cnc2ccc(OCCNC[C@H]3CN(c4cnc5c(n4)NC(=O)CS5)C(=O)O3)nc21 [Compound 1, (S)-5-(((2-((4-Methyl-3-oxo-3,4-dihydropyrido[2,3-b]pyrazin-6-yl)oxy)ethyl)amino)methyl)-3-(3-oxo-3,4-dihydro-2H-pyrazino[2,3-b][1,4]thiazin-6-yl)oxazolidin-2-one, reference compound] | 0.03 (≈ 0.0619 µM) | 0.1 (≈ 0.206 µM) | 0.03 (≈ 0.0619 µM) | 0.03 (≈ 0.0619 µM) | 0.5 (≈ 1.03 µM) | < 0.03 | 0.5 (≈ 1.03 µM) | 2 (≈ 4.13 µM) | 4 (≈ 8.26 µM) | 0.5 (≈ 1.03 µM) | 2 (≈ 4.13 µM) | 4 (≈ 8.26 µM) | 1 (≈ 2.06 µM) | 4 (≈ 8.26 µM) | 2 (≈ 4.13 µM) | 2 (≈ 4.13 µM) | 8 (≈ 16.5 µM) | 1.58 | 32 | 58 | 
Cn1c(=O)cnc2ccc(OCCNC[C@@H]3CN(c4cnc5c(n4)NC(=O)CS5)C(=O)O3)nc21 [Compound 3, (R)-5-(((2-((4-methyl-3-oxo-3,4-dihydropyrido[2,3-b]pyrazin-6-yl)oxy)ethyl)amino)methyl)-3-(3-oxo-3,4-dihydro-2H-pyrazino[2,3-b][1,4]thiazin-6-yl)oxazolidin-2-one] | 0.03 (≈ 0.0619 µM) | 0.03 (≈ 0.0619 µM) | 0.03 (≈ 0.0619 µM) | 0.03 (≈ 0.0619 µM) | 0.5 (≈ 1.03 µM) | < 0.015 | 0.5 (≈ 1.03 µM) | 1 (≈ 2.06 µM) | 8 (≈ 16.5 µM) | 0.5 (≈ 1.03 µM) | 4 (≈ 8.26 µM) | 4 (≈ 8.26 µM) | 1 (≈ 2.06 µM) | 4 (≈ 8.26 µM) | 2 (≈ 4.13 µM) | 4 (≈ 8.26 µM) | 4 (≈ 8.26 µM) | 0.81 | >500 |  | genotoxicity risk (in words) (CHO-K1 cells): completely devoid of any genotoxicity risk; micronucleus formation (in words) (CHO-K1 cells): did not induce micronucleus formation
